For the experiment, the target named is T1, RXFP1 (Homo sapiens, UniProt Q9HBX9).
T1 construct: OVCAR5 cells expressing endogenous RXFP1; endogenous in cells; host or cells: OVCAR5 cells
T1 sequence (Q9HBX9 1-757): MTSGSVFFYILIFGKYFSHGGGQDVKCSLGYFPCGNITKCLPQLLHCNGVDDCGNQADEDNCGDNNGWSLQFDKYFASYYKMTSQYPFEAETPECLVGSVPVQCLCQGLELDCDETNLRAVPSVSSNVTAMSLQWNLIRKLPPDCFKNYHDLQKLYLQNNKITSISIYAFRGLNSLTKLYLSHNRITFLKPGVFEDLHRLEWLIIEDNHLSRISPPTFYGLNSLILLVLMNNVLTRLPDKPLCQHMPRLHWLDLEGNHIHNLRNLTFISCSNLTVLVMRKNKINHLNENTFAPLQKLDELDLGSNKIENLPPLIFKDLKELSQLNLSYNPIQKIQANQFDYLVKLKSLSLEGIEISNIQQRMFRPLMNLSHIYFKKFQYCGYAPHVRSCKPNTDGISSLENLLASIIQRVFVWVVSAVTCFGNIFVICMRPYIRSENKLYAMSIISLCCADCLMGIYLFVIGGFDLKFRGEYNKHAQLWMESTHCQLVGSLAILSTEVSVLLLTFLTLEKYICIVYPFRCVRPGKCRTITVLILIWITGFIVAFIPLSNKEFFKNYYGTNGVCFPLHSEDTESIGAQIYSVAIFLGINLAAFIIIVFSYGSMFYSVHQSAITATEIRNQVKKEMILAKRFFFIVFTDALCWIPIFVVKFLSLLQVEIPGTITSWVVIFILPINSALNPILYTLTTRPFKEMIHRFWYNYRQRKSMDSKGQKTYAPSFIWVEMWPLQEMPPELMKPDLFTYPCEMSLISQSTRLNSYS
Briefly: OVCAR5 cAMP assay (HTRF), RXFP1 agonist activity. As to conditions: for Emax: OVCAR-5, maximal cAMP relative to H2-relaxin maximum (100%), read-out: EMax, OVCAR 5 cells (cAMP); for EC50: OVCAR5 cells, cAMP HTRF, read-out: EC50 (nM), OVCAR 5 cells (cAMP). Type of experiment: cell-based. Put shortly: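 OVCAR5 cells (endogenous RXFP1) pretreated 40 min at 37° C with 1 mM IBMX, then exposed to peptides in serum-free medium for 30 min at 37° C. Lysate cAMP read by HTRF; EC50 from variable-slope sigmoidal fit; Emax as % of H2-relaxin maximal cAMP in same run.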
(In general: Cyclic AMP is a second messenger, typically raised through Gs and lowered through Gi signalling.)

*1 amine or outer side, *2 acyl side, *3 side chain or, on linkers, in order; H or OH if unused. Where a SMILES comes first, the peptide text is derived from it. Side-chain parts run from the residue outwards. [ ]: non-standard residue; d: D form. The star is where a group is joined. γGlu = O=C(O)[C@H](CCC(=O)[*:2])N[*:1]; Stearoyl = CCCCCCCCCCCCCCCCCC(=O)*; Palmitoyl = CCCCCCCCCCCCCCCC(=O)*; Nle = CCCC[C@H](N)C(=O)O; AEEA = NCCOCCOCC(=O)O; Aib = CC(C)(N)C(=O)O

Consider `CCCCCCCCCCCCCCCCCC(=O)N[C@@H](CCC(=O)N[C@@H](CCC(=O)N[C@@H](CCC(=O)NCCOCCOCC(=O)NCCOCCOCC(=O)NCCOCCOCC(=O)NCCCC[C@H](NC(=O)[C@H](CCCCNC(C)=O)NC(=O)[C@H](CCCCN)NC(=O)[C@H](CCCNC(=N)N)NC(=O)C(C)(C)NC(=O)[C@H](CO)NC(=O)[C@H](Cc1c[nH]c2ccccc12)NC(=O)[C@@H](NC(=O)[C@H](CO)NC(=O)[C@H](CCC(N)=O)NC(=O)CNC(=O)[C@H](CCC(=O)O)NC(=O)C(C)(C)NC(=O)C(C)(C)NC(=O)[C@@H](NC(=O)[C@H](CCCCNC(C)=O)NC(=O)[C@H](C)NC(=O)[C@H](CCCNC(=N)N)NC(=O)[C@@H](NC(=O)[C@H](CCCCN)NC(=O)[C@H](CCC(=O)O)NC(=O)[C@H](CCCNC(=N)N)NC(=O)CNC(=O)[C@H](CCC(=O)O)NC(=O)[C@H](CC(C)C)NC(C)=O)C(C)C)[C@@H](C)CC)[C@@H](C)O)C(N)=O)C(=O)O)C(=O)O)C(=O)O` [compound 113] (Ac-LEGREKVRAK(Ac)I[Aib][Aib]EGQSTWS[Aib]RKK(Ac)K([AEEA-AEEA-AEEA-γGlu-γGlu-γGlu-Stearoyl])-NH2), for which the Emax was 89%.

For the molecule `CCCCCCCCCCCCCCCC(=O)N[C@@H](CCC(=O)N[C@@H](CCC(=O)N[C@@H](CCC(=O)NCCCC[C@H](NC(=O)COCCOCCNC(=O)COCCOCCNC(=O)COCCOCCNC(=O)[C@H](CCCCNC(C)=O)NC(=O)[C@H](CCCCN)NC(=O)[C@H](CCCNC(=N)N)NC(=O)C(C)(C)NC(=O)[C@H](CO)NC(=O)[C@H](Cc1c[nH]c2ccccc12)NC(=O)[C@@H](NC(=O)[C@H](CO)NC(=O)[C@H](CCCC)NC(=O)CNC(=O)[C@H](CCC(=O)O)NC(=O)C(C)(C)NC(=O)C(C)(C)NC(=O)[C@@H](NC(=O)[C@H](CCCCNC(C)=O)NC(=O)[C@H](C)NC(=O)[C@H](CCCNC(=N)N)NC(=O)[C@@H](NC(=O)[C@H](CCCCN)NC(=O)[C@H](CCC(=O)O)NC(=O)[C@H](CCCNC(=N)N)NC(=O)CNC(=O)[C@H](CCC(=O)O)NC(=O)[C@H](CC(C)C)NC(C)=O)C(C)C)[C@@H](C)CC)[C@@H](C)O)C(N)=O)C(=O)O)C(=O)O)C(=O)O` [compound 114] (Ac-LEGREKVRAK(Ac)I[Aib][Aib]EG[Nle]STWS[Aib]RKK(Ac)[AEEA][AEEA][AEEA]K([γGlu-γGlu-γGlu-Palmitoyl])-NH2), the Emax came to 90%.

Regarding `CCCCCCCCCCCCCCCCCC(=O)N[C@@H](CCC(=O)N[C@@H](CCC(=O)N[C@@H](CCC(=O)N[C@@H](CCC(=O)NCCOCCOCC(=O)NCCOCCOCC(=O)NCCOCCOCC(=O)NCCCC[C@H](NC(=O)[C@H](CCCCN)NC(=O)[C@H](CCCCN)NC(=O)[C@H](CCCNC(=N)N)NC(=O)C(C)(C)NC(=O)[C@H](CO)NC(=O)[C@H](Cc1c[nH]c2ccccc12)NC(=O)[C@@H](NC(=O)[C@H](CO)NC(=O)[C@H](CCC(N)=O)NC(=O)CNC(=O)[C@H](CCC(=O)O)NC(=O)C(C)(C)NC(=O)C(C)(C)NC(=O)[C@@H](NC(=O)[C@H](CCCCNC(C)=O)NC(=O)[C@H](C)NC(=O)[C@H](CCCNC(=N)N)NC(=O)[C@@H](NC(=O)[C@H](CCCCN)NC(=O)[C@H](CCC(=O)O)NC(=O)[C@H](CCCNC(=N)N)NC(=O)CNC(=O)[C@H](CCC(=O)O)NC(=O)[C@H](CC(C)C)NC(C)=O)C(C)C)[C@@H](C)CC)[C@@H](C)O)C(N)=O)C(=O)O)C(=O)O)C(=O)O)C(=O)O` [compound 115] (Ac-LEGREKVRAK(Ac)I[Aib][Aib]EGQSTWS[Aib]RKKK([AEEA-AEEA-AEEA-γGlu-γGlu-γGlu-γGlu-Stearoyl])-NH2), the EC50 was found to be 0.17 nM and the maximal effect (Emax) was 93%.

Take `CCCCCCCCCCCCCCCC(=O)N[C@@H](CCC(=O)NCCCC[C@H](NC(=O)CC[C@H](NC(=O)CC[C@H](NC(=O)COCCOCCNC(=O)COCCOCCNC(=O)COCCOCCNC(=O)COCCOCCNC(=O)[C@H](CCCCNC(C)=O)NC(=O)[C@H](CCCCN)NC(=O)[C@H](CCCNC(=N)N)NC(=O)C(C)(C)NC(=O)[C@H](CO)NC(=O)[C@H](Cc1c[nH]c2ccccc12)NC(=O)[C@@H](NC(=O)[C@H](CO)NC(=O)[C@H](CCCC)NC(=O)CNC(=O)[C@H](CCC(=O)O)NC(=O)C(C)(C)NC(=O)C(C)(C)NC(=O)[C@@H](NC(=O)[C@H](CCCCNC(C)=O)NC(=O)[C@H](C)NC(=O)[C@H](CCCNC(=N)N)NC(=O)[C@@H](NC(=O)[C@H](CCCCN)NC(=O)[C@H](CCC(=O)O)NC(=O)[C@H](CCCNC(=N)N)NC(=O)CNC(=O)[C@H](CCC(=O)O)NC(=O)[C@H](CC(C)C)NC(C)=O)C(C)C)[C@@H](C)CC)[C@@H](C)O)C(=O)O)C(=O)O)C(N)=O)C(=O)O` [compound 116] (Ac-LEGREKVRAK(Ac)I[Aib][Aib]EG[Nle]STWS[Aib]RKK(Ac)[AEEA][AEEA][AEEA][AEEA][γGlu][γGlu]K([γGlu-Palmitoyl])-NH2): the EC50 is 1 nM and the Emax worked out at 89%.

`CCCCCCCCCCCCCCCC(=O)N[C@@H](CCC(=O)NCCCC[C@H](NC(=O)CC[C@H](NC(=O)CC[C@H](NC(=O)COCCOCCNC(=O)COCCOCCNC(=O)COCCOCCNC(=O)[C@H](CCCCNC(C)=O)NC(=O)[C@H](CCCCN)NC(=O)[C@H](CCCNC(=N)N)NC(=O)C(C)(C)NC(=O)[C@H](CO)NC(=O)[C@H](Cc1c[nH]c2ccccc12)NC(=O)[C@@H](NC(=O)[C@H](CO)NC(=O)[C@H](CCCC)NC(=O)CNC(=O)[C@H](CCC(=O)O)NC(=O)C(C)(C)NC(=O)C(C)(C)NC(=O)[C@@H](NC(=O)[C@H](CCCCNC(C)=O)NC(=O)[C@H](C)NC(=O)[C@H](CCCNC(=N)N)NC(=O)[C@@H](NC(=O)[C@H](CCCCN)NC(=O)[C@H](CCC(=O)O)NC(=O)[C@H](CCCNC(=N)N)NC(=O)CNC(=O)[C@H](CCC(=O)O)NC(=O)[C@H](CC(C)C)NC(C)=O)C(C)C)[C@@H](C)CC)[C@@H](C)O)C(=O)O)C(=O)O)C(N)=O)C(=O)O` [compound 117] (Ac-LEGREKVRAK(Ac)I[Aib][Aib]EG[Nle]STWS[Aib]RKK(Ac)[AEEA][AEEA][AEEA][γGlu][γGlu]K([γGlu-Palmitoyl])-NH2): the Emax turned out to be 86%.

As for `CCCCCCCCCCCCCCCC(=O)N[C@@H](CCC(=O)NCCCC[C@H](NC(=O)CC[C@H](NC(=O)CC[C@H](NC(=O)COCCOCCNC(=O)COCCOCCNC(=O)[C@H](CCCCNC(C)=O)NC(=O)[C@H](CCCCN)NC(=O)[C@H](CCCNC(=N)N)NC(=O)C(C)(C)NC(=O)[C@H](CO)NC(=O)[C@H](Cc1c[nH]c2ccccc12)NC(=O)[C@@H](NC(=O)[C@H](CO)NC(=O)[C@H](CCCC)NC(=O)CNC(=O)[C@H](CCC(=O)O)NC(=O)C(C)(C)NC(=O)C(C)(C)NC(=O)[C@@H](NC(=O)[C@H](CCC(N)=O)NC(=O)[C@H](C)NC(=O)[C@H](CCCNC(=N)N)NC(=O)[C@@H](NC(=O)[C@H](CCCCN)NC(=O)[C@H](CCC(=O)O)NC(=O)[C@H](CCCNC(=N)N)NC(=O)CNC(=O)[C@H](CCC(=O)O)NC(=O)[C@H](CC(C)C)NC(C)=O)C(C)C)[C@@H](C)CC)[C@@H](C)O)C(=O)O)C(=O)O)C(N)=O)C(=O)O` [compound 118] (Ac-LEGREKVRAQI[Aib][Aib]EG[Nle]STWS[Aib]RKK(Ac)[AEEA][AEEA][γGlu][γGlu]K([γGlu-Palmitoyl])-NH2), the Emax came out at 86%.

Turning to `CCCCCCCCCCCCCCCC(=O)N[C@@H](CCC(=O)NCCCC[C@H](NC(=O)CC[C@H](NC(=O)CC[C@H](NC(=O)COCCOCCNC(=O)COCCOCCNC(=O)COCCOCCNC(=O)[C@H](CCCCNC(C)=O)NC(=O)[C@H](CCCCN)NC(=O)[C@H](CCCNC(=N)N)NC(=O)C(C)(C)NC(=O)[C@H](CO)NC(=O)[C@H](Cc1c[nH]c2ccccc12)NC(=O)[C@@H](NC(=O)[C@H](CO)NC(=O)[C@H](CCCC)NC(=O)CNC(=O)[C@H](CCC(=O)O)NC(=O)C(C)(C)NC(=O)C(C)(C)NC(=O)[C@@H](NC(=O)[C@H](CCC(N)=O)NC(=O)[C@H](C)NC(=O)[C@H](CCCNC(=N)N)NC(=O)[C@@H](NC(=O)[C@H](CCCCN)NC(=O)[C@H](CCC(=O)O)NC(=O)[C@H](CCCNC(=N)N)NC(=O)CNC(=O)[C@H](CCC(=O)O)NC(=O)[C@H](CC(C)C)NC(C)=O)C(C)C)[C@@H](C)CC)[C@@H](C)O)C(=O)O)C(=O)O)C(N)=O)C(=O)O` [compound 119] (Ac-LEGREKVRAQI[Aib][Aib]EG[Nle]STWS[Aib]RKK(Ac)[AEEA][AEEA][AEEA][γGlu][γGlu]K([γGlu-Palmitoyl])-NH2), the concentration for a half-maximal effect (EC50) stood at 1.21 nM and the Emax was found to be 83%.

As usually defined, the Emax is the maximal effect, on the per cent scale that the assay sets. What is called EC50 is the concentration needed to bring the measured effect to its halfway point.
